# Source: the supplement of paper PMC10307832
# Legend:
# Experiment in all cases: relative viability (nuclei count vs DMSO), 5 days (fraction); higher = more cells survive
# [1] = system: H3255
# How it was run: (§1)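 A single step with final 0.05% Triton X-100, 1% formaldehyde and 1 ug/ml Hoechst fixed the cells and stained nuclei 5 days after treatment. Lung cancer cell lines in 1536-well plates had been treated by pin tool the day after seeding with one drug alone or a fixed anchor-drug dose plus five library-drug doses (not always all listed) in √10 steps, and nuclei were counted on 4× images. Relative viability is the ratio of nuclei in treated wells to nuclei in vehicle wells, taken as the median of duplicate plates.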
# [2] = system: NCI-H650
# How it was run: as §1
# [3] = system: NCI-H1650
# How it was run: as §1
# [4] = system: NCI-H838
# How it was run: as §1
# [5] = system: LU99A
# How it was run: as §1
# [6] = system: SW 1573
# How it was run: as §1
# [7] = system: PC-3 [JPC-3]
# How it was run: as §1
# [8] = system: NCI-H460
# How it was run: as §1
# [9] = system: COR-L23
# How it was run: as §1
# [10] = system: NCI-H1793
# How it was run: as §1
# [11] = system: PC-14
# How it was run: as §1
# [12] = system: SW 900
# How it was run: as §1
# [13] = system: LK-2
# How it was run: as §1
# [14] = system: NCI-H1563
# How it was run: as §1
# [15] = system: NCI-H727
# How it was run: as §1
# [16] = system: NCI-H23
# How it was run: as §1
# [17] = system: NCI-H2347
# How it was run: as §1
# [18] = system: LCLC-103H
# How it was run: as §1
# [19] = system: A-427
# How it was run: as §1
# [20] = system: NCI-H1944
# How it was run: as §1
# [21] = system: 201T
# How it was run: as §1
# [22] = system: LCLC-97TM1
# How it was run: as §1
smiles,measurement,setting,value
O=C(O)c1ccc(-c2c[nH]c3ncc(-c4ccccc4)cc23)cc1C1CCCC1 + Cc1nc(Nc2ncc(C(=O)Nc3c(C)cccc3Cl)s2)cc(N2CCN(CCO)CC2)n1 [Dasatinib] (partner 0.075 µM),relative viability,[1]; first compound 0.04 µM,0.378
same,relative viability,[1]; first compound 0.1265 µM,0.6
same,relative viability,[1]; first compound 0.4 µM,0.348
same,relative viability,[1]; first compound 1.265 µM,0.473
same,relative viability,[2]; first compound 0.04 µM,0.43
same,relative viability,[2]; first compound 0.1265 µM,0.502
same,relative viability,[2]; first compound 0.4 µM,0.405
same,relative viability,[2]; first compound 1.265 µM,0.353
same,relative viability,[3]; first compound 0.04 µM,0.312
same,relative viability,[3]; first compound 0.1265 µM,0.357
same,relative viability,[3]; first compound 0.4 µM,0.37
same,relative viability,[3]; first compound 1.265 µM,0.308
same,relative viability,[4]; first compound 0.04 µM,0.273
same,relative viability,[4]; first compound 0.1265 µM,0.299
same,relative viability,[4]; first compound 0.4 µM,0.31
same,relative viability,[4]; first compound 1.265 µM,0.293
same,relative viability,[5]; first compound 0.04 µM,0.599
same,relative viability,[5]; first compound 0.1265 µM,0.748
same,relative viability,[5]; first compound 0.4 µM,0.626
same,relative viability,[5]; first compound 1.265 µM,0.448
same,relative viability,[6]; first compound 0.04 µM,0.398
same,relative viability,[6]; first compound 0.1265 µM,0.542
same,relative viability,[6]; first compound 0.4 µM,0.455
same,relative viability,[6]; first compound 1.265 µM,0.392
same,relative viability,[7]; first compound 0.04 µM,0.981
same,relative viability,[7]; first compound 0.1265 µM,1.09
same,relative viability,[7]; first compound 0.4 µM,1.07
same,relative viability,[7]; first compound 1.265 µM,0.973
same,relative viability,[8]; first compound 0.04 µM,0.566
same,relative viability,[8]; first compound 0.1265 µM,0.676
same,relative viability,[8]; first compound 0.4 µM,0.472
same,relative viability,[8]; first compound 1.265 µM,0.428
same,relative viability,[9]; first compound 0.04 µM,0.485
same,relative viability,[9]; first compound 0.1265 µM,0.578
same,relative viability,[9]; first compound 0.4 µM,0.469
same,relative viability,[9]; first compound 1.265 µM,0.3
same,relative viability,[10]; first compound 0.04 µM,0.376
same,relative viability,[10]; first compound 0.1265 µM,0.473
same,relative viability,[10]; first compound 0.4 µM,0.373
same,relative viability,[10]; first compound 1.265 µM,0.342
same,relative viability,[11]; first compound 0.04 µM,0.245
same,relative viability,[11]; first compound 0.1265 µM,0.258
same,relative viability,[11]; first compound 0.4 µM,0.281
same,relative viability,[11]; first compound 1.265 µM,0.286
same,relative viability,[12]; first compound 0.04 µM,0.577
same,relative viability,[12]; first compound 0.1265 µM,0.712
same,relative viability,[12]; first compound 0.4 µM,0.584
same,relative viability,[12]; first compound 1.265 µM,0.52
same,relative viability,[13]; first compound 0.04 µM,0.362
same,relative viability,[13]; first compound 0.1265 µM,0.282
same,relative viability,[13]; first compound 0.4 µM,0.252
same,relative viability,[13]; first compound 1.265 µM,0.274
same,relative viability,[14]; first compound 0.04 µM,0.455
same,relative viability,[14]; first compound 0.1265 µM,0.514
same,relative viability,[14]; first compound 0.4 µM,0.48
same,relative viability,[14]; first compound 1.265 µM,0.48
same,relative viability,[15]; first compound 0.04 µM,0.298
same,relative viability,[15]; first compound 0.1265 µM,0.398
same,relative viability,[15]; first compound 0.4 µM,0.442
same,relative viability,[15]; first compound 1.265 µM,0.364
same,relative viability,[16]; first compound 0.04 µM,0.82
same,relative viability,[16]; first compound 0.1265 µM,1.04
same,relative viability,[16]; first compound 0.4 µM,0.729
same,relative viability,[16]; first compound 1.265 µM,0.717
same,relative viability,[17]; first compound 0.04 µM,0.275
same,relative viability,[17]; first compound 0.1265 µM,0.799
same,relative viability,[17]; first compound 0.4 µM,0.298
same,relative viability,[17]; first compound 1.265 µM,0.299
same,relative viability,[18]; first compound 0.04 µM,0.481
same,relative viability,[18]; first compound 0.1265 µM,0.426
same,relative viability,[18]; first compound 0.4 µM,0.499
same,relative viability,[18]; first compound 1.265 µM,0.545
same,relative viability,[19]; first compound 0.04 µM,0.672
same,relative viability,[19]; first compound 0.1265 µM,0.749
same,relative viability,[19]; first compound 0.4 µM,0.64
same,relative viability,[19]; first compound 1.265 µM,0.595
same,relative viability,[20]; first compound 0.04 µM,0.227
same,relative viability,[20]; first compound 0.1265 µM,0.254
same,relative viability,[20]; first compound 0.4 µM,0.216
same,relative viability,[20]; first compound 1.265 µM,0.193
same,relative viability,[21]; first compound 0.04 µM,0.58
same,relative viability,[21]; first compound 0.1265 µM,0.599
same,relative viability,[21]; first compound 0.4 µM,0.523
same,relative viability,[21]; first compound 1.265 µM,0.534
same,relative viability,[22]; first compound 0.04 µM,0.836
same,relative viability,[22]; first compound 0.1265 µM,0.893
same,relative viability,[22]; first compound 0.4 µM,0.881
same,relative viability,[22]; first compound 1.265 µM,0.686
